Results published in PubChem BioAssay AID330 (DTP/NCI, 2004).
“And” between values parts separate entries of the source, which are not always exact repeats. Identical values can stand only once. Toxic doses and inconclusive results are not listed.

System: P388 leukemia ip, CD2F1 mice, survival T/C
Experiment: NCI In Vivo Anticancer Drug Screen. Data for tumor model P388 Leukemia (intraperitoneal) in CD2F1 (CDF1) mice
Conditions: endpoint: median survival time, higher = longer survival
Outline: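 Mice carrying the transplanted tumor received test compound or vehicle. Survival was recorded in each group, and the value is the treated-group measurement divided by that of the vehicle-treated control group.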

[1] = dose: 6.25 mg/kg/injection, schedule: Q01DX009 (ip), vehicle: water
[2] = dose: 12.5 mg/kg/injection, schedule: Q01DX009 (ip), vehicle: water
[3] = dose: 25.0 mg/kg/injection, schedule: Q01DX009 (ip), vehicle: water
[4] = dose: 100.0 mg/kg/injection, schedule: Q04DX002 (ip), vehicle: Klucel (hydroxypropylcellulose) (HPC)
[5] = dose: 200.0 mg/kg/injection, schedule: Q04DX002 (ip), vehicle: Klucel (hydroxypropylcellulose) (HPC)
[6] = dose: 400.0 mg/kg/injection, schedule: Q04DX002 (ip), vehicle: Klucel (hydroxypropylcellulose) (HPC)
[7] = dose: 100.0 mg/kg/injection, schedule: Q01DX009 (ip), vehicle: saline with Tween-80
[8] = dose: 50.0 mg/kg/injection, schedule: Q01DX005 (ip), vehicle: saline with Tween-80
[9] = dose: 100.0 mg/kg/injection, schedule: Q01DX005 (ip), vehicle: saline with Tween-80
[10] = dose: 100.0 mg/kg/injection, schedule: Q04DX003 (ip), vehicle: saline with Tween-80
[11] = dose: 200.0 mg/kg/injection, schedule: Q01DX005 (ip), vehicle: saline with Tween-80
[12] = dose: 50.0 mg/kg/injection, schedule: Q01DX005 (ip), vehicle: saline
[13] = dose: 100.0 mg/kg/injection, schedule: Q01DX005 (ip), vehicle: saline
[14] = dose: 50.0 mg/kg/injection, schedule: Q01DX005 (ip), vehicle: Klucel (hydroxypropylcellulose) (HPC)
[15] = dose: 100.0 mg/kg/injection, schedule: Q01DX005 (ip), vehicle: Klucel (hydroxypropylcellulose) (HPC)
[16] = dose: 50.0 mg/kg/injection, schedule: Q01DX009 (ip), vehicle: saline with Tween-80
[17] = dose: 200.0 mg/kg/injection, schedule: Q01DX009 (ip), vehicle: saline with Tween-80
[18] = dose: 60.0 mg/kg/injection, schedule: Q01DX005 (ip), vehicle: saline with Tween-80
[19] = dose: 120.0 mg/kg/injection, schedule: Q01DX005 (ip), vehicle: saline with Tween-80
[20] = dose: 240.0 mg/kg/injection, schedule: Q01DX005 (ip), vehicle: saline with Tween-80

For COc1cccc2c1C(=O)c1c(O)c3c(c(O)c1C2=O)CC(O)(/C(C)=N/NC(=O)CCCCCCCCC(=O)N/N=C(\C)C1(O)Cc2c(O)c4c(c(O)c2C(OC2CC(N)C(O)C(C)O2)C1)C(=O)c1c(OC)cccc1C4=O)CC3OC1CC(N)C(O)C(C)O1 (stereo not given), the T/C (dose: 3.13 mg/kg/injection, schedule: Q01DX009 (ip), vehicle: water) was 155 % of control, the T/C [1] was 174 % of control and the T/C [2] was 221 % of control. The T/C [3] was 99 % of control.

NC(=S)N/N=C/c1c(-c2ccc(-c3ccccc3)cc2)nc2n1CCS2 was tested, and the T/C [4] was 98 % of control, the T/C [5] was 104 % of control and the T/C [6] was 99 % of control.

In the case of O=S(=O)(O)O.[Cu+2].[NH-]CCCCC[NH-].[NH-]CCCCC[NH-], the T/C (dose: 1.56 mg/kg/injection, schedule: Q04DX002 (ip), vehicle: Klucel (hydroxypropylcellulose) (HPC)) is reported as 100 % of control, the T/C (dose: 3.12 mg/kg/injection, schedule: Q04DX002 (ip), vehicle: Klucel (hydroxypropylcellulose) (HPC)) is reported as 98 % of control and the T/C (dose: 6.25 mg/kg/injection, schedule: Q04DX002 (ip), vehicle: Klucel (hydroxypropylcellulose) (HPC)) is reported as 100 % of control. For the same compound, the T/C (dose: 12.5 mg/kg/injection, schedule: Q04DX002 (ip), vehicle: Klucel (hydroxypropylcellulose) (HPC)) was 88 % of control and 98 % of control.

With CC(=O)[C@@]1(O)CC[C@H]2[C@@H]3C[C@H](C)C4=CC(=O)CC[C@]4(C)[C@H]3[C@@H](O)C[C@@]21C the T/C (dose: 66.0 mg/kg/injection, schedule: Q01DX009 (ip), vehicle: saline with Tween-80) was 100 % of control, the T/C [7] was 100 % of control and the T/C (dose: 150.0 mg/kg/injection, schedule: Q01DX009 (ip), vehicle: saline with Tween-80) was 104 % of control.

With Cc1c(S)cnc2ccccc12 the T/C [8] was 99 % of control and the T/C [9] was 93 % of control.

For CCCCCCCC(=O)Nc1cccc(C)c1C, the T/C [10] was 90 % of control and the T/C (dose: 200.0 mg/kg/injection, schedule: Q04DX003 (ip), vehicle: saline with Tween-80) was 95 % of control.

In the case of O=S(=O)(CS(=O)(=O)c1ccc(Br)cc1)c1ccc(Br)cc1, the T/C (dose: 60.0 mg/kg/injection, schedule: Q01DX005 (ip), vehicle: Klucel (hydroxypropylcellulose) (HPC)) is reported as 102 % of control, the T/C (dose: 120.0 mg/kg/injection, schedule: Q01DX005 (ip), vehicle: Klucel (hydroxypropylcellulose) (HPC)) is reported as 107 % of control and the T/C (dose: 240.0 mg/kg/injection, schedule: Q01DX005 (ip), vehicle: Klucel (hydroxypropylcellulose) (HPC)) is reported as 102 % of control.

In the case of OCc1ccn2c1CCC2, the T/C [1] is reported as 107 % of control, the T/C [2] is reported as 109 % of control and the T/C [3] is reported as 110 % of control. For the same compound, the T/C (dose: 50.0 mg/kg/injection, schedule: Q01DX009 (ip), vehicle: water) was 115 % of control and the T/C (dose: 100.0 mg/kg/injection, schedule: Q01DX009 (ip), vehicle: water) was 109 % of control.

For C/C(=N\NC(=S)N1CCC(c2ccccc2)CC1)c1nccnc1C, the T/C [8] was 100 % of control, the T/C [9] was 102 % of control and the T/C [11] was 100 % of control.

With CCN(CC)CCOC1CCCCC1 the T/C [12] was 105 % of control and the T/C [13] was 98 % of control.

With O=c1oc2c(cc1Cl)CCCC2 the T/C [14] was 96 % of control, the T/C [15] was 101 % of control and the T/C (dose: 200.0 mg/kg/injection, schedule: Q01DX005 (ip), vehicle: Klucel (hydroxypropylcellulose) (HPC)) was 103 % of control.

With COC(=O)c1ccccc1NC(Cc1ccccc1)=NC(C)(C)C the T/C [16] was 86 % of control and the T/C [7] was 99 % of control.

With O=[N+]([O-])c1ccc(N=Nc2ccc(N(CCO)CCO)cc2)cc1 the T/C (dose: 60.0 mg/kg/injection, schedule: Q01DX005 (ip), vehicle: suspension in saline) was 95 % of control, the T/C (dose: 120.0 mg/kg/injection, schedule: Q01DX005 (ip), vehicle: suspension in saline) was 97 % of control and the T/C (dose: 240.0 mg/kg/injection, schedule: Q01DX005 (ip), vehicle: suspension in saline) was 98 % of control.

For O=C(O)CC(SCP(=O)(O)O)C(=O)O (stereo not given), the T/C (dose: 30.0 mg/kg/injection, schedule: Q01DX005 (ip), vehicle: saline) was 98 % of control, the T/C (dose: 60.0 mg/kg/injection, schedule: Q01DX005 (ip), vehicle: saline) was 91 % of control and the T/C (dose: 120.0 mg/kg/injection, schedule: Q01DX005 (ip), vehicle: saline) was 89 % of control. The T/C (dose: 240.0 mg/kg/injection, schedule: Q01DX005 (ip), vehicle: saline) was 93 % of control and 97 % of control.

In the case of CCN(CC)CCOC(=O)c1ccc(NC(=S)Nc2ccccc2)cc1, the T/C [8] is reported as 98 % of control and the T/C [9] is reported as 90 % of control.

In the case of O=C(c1ccccc1)C(F)(F)C(F)(F)F, the T/C (dose: 25.0 mg/kg/injection, schedule: Q01DX009 (ip), vehicle: saline with Tween-80) is reported as 107 % of control, the T/C [16] is reported as 109 % of control and the T/C [7] is reported as 110 % of control. For the same compound, the T/C [17] was 109 % of control.

In the case of CC1Cn2c(c(-c3ccccc3)c(=O)[nH]c2=S)O1 (stereo not given), the T/C [16] is reported as 100 % of control, the T/C [7] is reported as 98 % of control and the T/C [17] is reported as 91 % of control.

In the case of NC(=O)C(N)CCc1ccccc1 (stereo not given), the T/C [18] is reported as 100 % of control, the T/C [19] is reported as 102 % of control and the T/C [20] is reported as 96 % of control.

With CC(C)=CCC(OC1OC(CO)C(O)C(O)C1O)C1=CC(=O)c2c(O)ccc(O)c2C1=O (stereo not given) the T/C (dose: 12.5 mg/kg/injection, schedule: Q04DX002 (ip), vehicle: saline with Tween-80) was 119 % of control and the T/C (dose: 25.0 mg/kg/injection, schedule: Q04DX002 (ip), vehicle: saline with Tween-80) was 115 % of control.

COc1cc2c(cc1OC)NC(=O)C2 was tested, and the T/C (dose: 50.0 mg/kg/injection, schedule: Q04DX003 (ip), vehicle: saline with Tween-80) was 97 % of control and the T/C [10] was 98 % of control.

With O=C(O)C1Cc2c([nH]c3ccccc23)C(CCCCO)N1 (stereo not given) the T/C (dose: 6.25 mg/kg/injection, schedule: Q01DX009 (ip), vehicle: Klucel (hydroxypropylcellulose) (HPC)) was 101 % of control and the T/C (dose: 12.5 mg/kg/injection, schedule: Q01DX009 (ip), vehicle: Klucel (hydroxypropylcellulose) (HPC)) was 99 % of control.

For Cc1cccc(N2C(c3ccccc3)c3ccc(C)cc3NS2=O)c1 (stereo not given), the T/C [18] was 97 % of control, the T/C [19] was 90 % of control and the T/C [20] was 95 % of control.

For N#CC1=C(Nc2ccccc2)CCC1, the T/C (dose: 12.5 mg/kg/injection, schedule: Q01DX005 (ip), vehicle: Klucel (hydroxypropylcellulose) (HPC)) was 95 % of control, the T/C (dose: 25.0 mg/kg/injection, schedule: Q01DX005 (ip), vehicle: Klucel (hydroxypropylcellulose) (HPC)) was 101 % of control and the T/C [14] was 99 % of control and 101 % of control. The T/C [15] was 110 % of control.

With Cc1cc(Br)ccc1N1CSC(=S)N(c2ccc(Br)cc2C)C1 the T/C [8] was 88 % of control, the T/C [9] was 90 % of control and the T/C [11] was 93 % of control.

With O=C1CC2(CCCC2)CC(=O)N1c1ccc(O)c(CN2CCOCC2)c1 the T/C [4] was 97 % of control, the T/C [5] was 89 % of control and the T/C [6] was 90 % of control.

Cc1c2ccncc2c(CO)c2c3ccccc3n(C)c12 was tested, and the T/C (dose: 5.0 mg/kg/injection, schedule: Q01DX005 (ip), vehicle: saline) was 109 % of control, the T/C (dose: 10.0 mg/kg/injection, schedule: Q01DX005 (ip), vehicle: saline) was 97 % of control and the T/C (dose: 20.0 mg/kg/injection, schedule: Q01DX005 (ip), vehicle: saline) was 97 % of control.

In the case of COC(=O)c1nnn(-c2cccc(C(F)(F)F)c2)c1N, the T/C [18] is reported as 89 % of control, the T/C [19] is reported as 90 % of control and the T/C [20] is reported as 100 % of control.

For CN(C)CCC1CC(O)CCC1(C)O (stereo not given), the T/C [12] was 98 % of control, the T/C [13] was 100 % of control and the T/C (dose: 200.0 mg/kg/injection, schedule: Q01DX005 (ip), vehicle: saline) was 102 % of control.

In the case of CCOC(=O)c1c(C(C)=O)cnc2c(C#N)cnn12, the T/C [8] is reported as 98 % of control, the T/C [9] is reported as 98 % of control and the T/C [11] is reported as 91 % of control.

In the case of CNC(=S)N/N=C/c1ccccn1, the T/C (dose: 25.0 mg/kg/injection, schedule: Q01DX009 (ip), vehicle: saline) is reported as 117 % of control, the T/C (dose: 50.0 mg/kg/injection, schedule: Q01DX009 (ip), vehicle: saline) is reported as 116 % of control and the T/C (dose: 100.0 mg/kg/injection, schedule: Q01DX009 (ip), vehicle: saline) is reported as 101 % of control. For the same compound, the T/C (dose: 200.0 mg/kg/injection, schedule: Q01DX009 (ip), vehicle: saline) was 97 % of control.
